In patent US12410164B2, “Heterocyclic compounds and medical use thereof” (FONDAZIONE TELETHON, priority 2018, dated 2025):
“Also recorded” adds a separate entry of the source.

Legend:
Assay type in all cases: cell-based
F508del-CFTR [1] = biological target: T1, F508del-CFTR (Homo sapiens, UniProt P13569, DEL508-508); experiment: HS-YFP kinetic fluorescence (iodide quenching rate) assay in CFBE41o− cells; set-up: expressed in transfected cells; host or cells: CFBE41o- cells with expression of F508del-CFTR and HS-YFP (generated as in Sondo et al. 2011); conditions: for AI (%) additivity index: Table 1, (QRTOT − QRVX)/QRVX, HS-YFP assay
Summary of the method: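 CFBE41o- cells co-expressing F508del-CFTR and HS-YFP, treated 24 h with compound (0.1-0.2% DMSO), then stimulated with 20 μM forskolin plus 50 μM genistein. Fluorescence was read for 14 s during NaI injection. Background-subtracted, normalized traces were fitted exponentially to give maximum quenching rate (QR).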

F508del-CFTR [2] = biological target: T1, F508del-CFTR; experiment: Analysis of F508del-CFTR maturation by immunoblot in CFBE41o− cells; set-up: expressed in transfected cells; host or cells: CFBE41o- cells with expression of F508del-CFTR and HS-YFP (generated as in Sondo et al. 2011); conditions: compound 10 μM plus VX-809 1 μM, 24 hr
Protocol: CFBE41o− cells were grown to confluence on 60-mm diameter dishes and lysed in RIPA buffer containing a complete protease inhibitor (Roche; cat. n. 11697498001). Cell lysates were centrifuged at 12000 rpm at 4° C. for 10 min. Supernatant protein concentration was calculated using the BCA assay (Euroclone; cat. n. EMP014500) following the manufacturer's instructions. Equal amounts of total protein content (30 μg) were separated onto 10% Criterion TGX Precast gels (Bio-rad laboratories Inc.; cat. n. 4561033), transferred to nitrocellulose membrane with Trans-Blot Turbo system (Bio-rad Laboratories Inc.) and analyzed by Western blotting. Primary antibody for CFTR was anti-CFTR 596 (University of North Carolina at Chapel Hill, and Cystic Fibrosis Foundation Therapeutics, see Cui L, et al. J. Mol Biol 2007, 365, 981-994) at 1:5000 dilution. As secondary antibody, anti-mouse HRP-conjugated Ab 97023 (Abcam) was used at 1:10000 dilution. Results were subsequently visualized by chemiluminescence using the SuperSignal West Femto Substrate (Thermo Scientific) and the Molecular Imager ChemiDoc XRS System.
To analyze the mechanism of action of the compounds of the invention, two types of experiments were carried out. In the first type of experiment, the electrophoretic mobility of F508del-CFTR protein was determined by immunoblot assay. This is a frequently used method to assess the effect of correctors at the protein level. In control conditions, F508del-CFTR migrates predominantly as a single band of 150 kDa called “band B”. This is the immature form of the protein residing in the endoplasmic reticulum. When the protein folding and stability is improved by correctors, an additional band appears at higher molecular weight (170 kDa). This is the so-called band C, which represents the mature form of the CFTR protein that has reached the Golgi compartment and acquired full glycosylation.

G542X-CFTR = experiment: HS-YFP assay in null CFBE41o− cells transfected with G542X-CFTR; conditions: G418 0.5 mg/ml alone, 24 hr
Protocol: To assess the function and pharmacological sensitivity of G542X-CFTR mutant, inventors used the null version of CFBE41o− cells, i.e. cells with negligible expression of endogenous CFTR and without HS-YFP. Such cells were transiently transfected with the plasmid coding for HS-YFP alone or in combination with: empty plasmid, plasmid coding for wild type CFTR, or plasmid coding for G542X-CFTR. For transfection, cells were seeded in 96-well microplates (30,000 cells/well) in 150 μl of antibiotic-free culture medium. After 24 hours, cells were transfected with the desired plasmids. For each well, 0.2 μg of total plasmid DNA and 0.5 μl of Lipofectamine 2000 (Invitrogen) were first pre-mixed in 50 μl of OPTIMEM (Invitrogen) to generate transfection complexes (60 minutes at room temperature), and then added to the cells. After 24 hour, the complexes were removed by replacement with fresh culture medium. The HS-YFP functional assay was performed after further 24 hours.
To assess the ability of compounds of present invention to improve the rescue of premature stop codon (class I) mutations, we carried out experiments on G542X-CFTR (FIG. 7). Null CFBE41o− cells, devoid of endogenous CFTR expression, were transiently transfected with empty, wild type CFTR or G542X-CFTR plasmids. All cells also received the HS-YFP plasmid to allow functional determination of CFTR-dependent anion transport. […] Where indicated, cells with G542X-CFTR were also treated with G418 (0.5 mg/ml) for 24 hr to induce readthrough of the stop codon mutation, with and without correctors (VX-809 and/or PP028, labeled as VX and PP). […] The activity resulting from wild type CFTR is also shown for comparison.

T1 sequence (P13569 with tags, fused parts or gaps DEL508-508): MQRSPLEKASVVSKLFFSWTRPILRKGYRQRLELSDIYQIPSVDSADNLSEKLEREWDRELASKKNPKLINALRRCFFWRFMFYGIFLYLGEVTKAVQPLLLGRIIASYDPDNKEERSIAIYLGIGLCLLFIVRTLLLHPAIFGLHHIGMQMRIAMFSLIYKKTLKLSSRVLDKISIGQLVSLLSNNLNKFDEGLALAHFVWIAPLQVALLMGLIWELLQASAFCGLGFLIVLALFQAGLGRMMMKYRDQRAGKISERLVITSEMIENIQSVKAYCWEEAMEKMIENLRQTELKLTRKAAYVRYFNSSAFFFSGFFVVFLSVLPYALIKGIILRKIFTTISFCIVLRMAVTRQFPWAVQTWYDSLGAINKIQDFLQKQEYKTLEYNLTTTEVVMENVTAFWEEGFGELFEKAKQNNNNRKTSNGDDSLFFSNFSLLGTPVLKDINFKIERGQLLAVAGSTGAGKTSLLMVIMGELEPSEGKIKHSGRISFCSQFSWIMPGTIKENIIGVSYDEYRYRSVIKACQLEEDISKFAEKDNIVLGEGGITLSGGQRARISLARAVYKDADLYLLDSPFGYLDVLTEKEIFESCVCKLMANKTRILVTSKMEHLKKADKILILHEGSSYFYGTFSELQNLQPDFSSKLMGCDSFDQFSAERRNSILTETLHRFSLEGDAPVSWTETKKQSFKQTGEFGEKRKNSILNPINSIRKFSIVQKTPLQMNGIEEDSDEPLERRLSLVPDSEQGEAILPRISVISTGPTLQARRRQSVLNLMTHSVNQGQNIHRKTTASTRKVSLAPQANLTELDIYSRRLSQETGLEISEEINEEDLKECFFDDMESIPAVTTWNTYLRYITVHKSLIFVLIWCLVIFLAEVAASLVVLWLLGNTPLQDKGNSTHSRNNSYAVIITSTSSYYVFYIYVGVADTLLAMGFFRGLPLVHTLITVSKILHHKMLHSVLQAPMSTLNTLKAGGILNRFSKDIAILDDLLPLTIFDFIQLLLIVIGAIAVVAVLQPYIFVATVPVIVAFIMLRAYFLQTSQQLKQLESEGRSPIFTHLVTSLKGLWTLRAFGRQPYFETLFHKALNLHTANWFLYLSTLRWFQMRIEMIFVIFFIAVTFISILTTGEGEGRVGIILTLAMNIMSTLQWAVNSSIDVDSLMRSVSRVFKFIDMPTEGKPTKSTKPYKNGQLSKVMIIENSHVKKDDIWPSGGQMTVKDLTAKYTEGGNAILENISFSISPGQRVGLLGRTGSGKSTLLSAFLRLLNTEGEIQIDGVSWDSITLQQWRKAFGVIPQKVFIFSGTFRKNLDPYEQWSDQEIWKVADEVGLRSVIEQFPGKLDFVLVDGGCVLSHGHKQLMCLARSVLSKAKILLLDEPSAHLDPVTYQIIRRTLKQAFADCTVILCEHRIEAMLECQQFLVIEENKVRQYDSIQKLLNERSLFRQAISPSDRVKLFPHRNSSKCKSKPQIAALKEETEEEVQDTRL

In the case of `Cc1ccc(Cn2c(C(=O)OC(C)C)c(Br)c3c2-c2[nH]c(=O)c(S(=O)(=O)c4ccccc4)cc2CC3)cc1` [PP034, Propan-2-yl 7-(benzenesulfonyl)-3-bromo-1-[(4-methylphenyl)methyl]-8-oxo-4,5,8,9-tetrahydro-1H-pyrrolo[3,2-h]quinoline-2-carboxylate], the “AI (%) additivity index” value (F508del-CFTR [1]; compound at 10 μM plus VX-809) is reported as 261%, the “structure-activity comparison of corrector potency/activity” value (F508del-CFTR [1]; relative to the analogue) is reported as “Increased activity” and the “band C (mature form) expression versus VX-809 alone” value (F508del-CFTR [2]) is reported as “markedly enhances the abundance of the mature form of the protein; also recorded: marked increase in band C expression”.
With `CN[C@@H]1[C@@H](O)[C@@H](O[C@@H]2[C@@H](O)[C@H](O[C@H]3O[C@H]([C@@H](C)O)[C@@H](O)[C@H](O)[C@H]3N)[C@@H](N)C[C@H]2N)OC[C@]1(C)O` [G418, reference compound] the “CFTR activity (QR) in G542X-CFTR cells” value (G542X-CFTR) was “modest but significant increase in CFTR activity”.
With `O=C(NC1CC1)c1cc2c(n1Cc1ccc(Br)cc1)-c1[nH]c(=O)c(S(=O)(=O)c3ccccc3)cc1CC2` [PP098, 7-(Benzenesulfonyl)-1-[(4-bromophenyl)methyl]-N-cyclopropyl-8-oxo-4,5,8,9-tetrahydro-1H-pyrrolo[3,2-h]quinoline-2-carboxamide] the “AI (%) additivity index” value (F508del-CFTR [1]; compound at 10 μM plus VX-809) was 4%.
Work on `CCOC(=O)c1c(Br)c2c(n1Cc1ccc(C)c(C)c1)-c1nc(NS(=O)(=O)c3ccccc3)ncc1CC2` [SVQ14, Ethyl 2-[(benzenesulfonyl)amino]-7-bromo-9-[(3,4-dimethylphenyl)methyl]-6,9-dihydro-5H-pyrrolo[3,2-h]quinazoline-8-carboxylate] yielded an AI additivity index (F508del-CFTR [1]; Table 3, compound at 10 μM plus VX-809, (QRTOT-QRVX)/QRVX) of 128%.
`CC(C)NC(=O)c1cc2c(n1Cc1ccc(Br)cc1)-c1[nH]c(=O)c(S(=O)(=O)c3ccccc3)cc1CC2` [PP096, 7-(Benzenesulfonyl)-1-[(4-bromophenyl)methyl]-8-oxo-N-(propan-2-yl)-4,5,8,9-tetrahydro-1H-pyrrolo[3,2-h]quinoline-2-carboxamide] was tested, and the “AI (%) additivity index” value (F508del-CFTR [1]; compound at 10 μM plus VX-809) was 3%.
